Columns and labels:
Assay type in all cases: physicochemical
[1] = Measurement of water content (coulometric titration method); conditions: as prepared, sample 5 mg
Excerpt: For evaluation of purity of Compound 1 or the substance in the form of a salt, the area percentage method based on HPLC is convenient. For evaluation of water content of Compound 1 or the substance in the form of a salt, the volumetric titration method, the coulometric titration method described in Japanese Pharmacopoeia, General Test Methods, “Water Determination”, the loss on drying test and the like can be used. When sample weight is small, the coulometric titration method can be preferably chosen.

[2] = Hygroscopicity Test 2 (25° C. and 84% RH; free base, salts and salt mixtures); conditions: for Appearance / Water content / Purity: 25° C. and 84% RH, dark; for Purity: HPLC
Description: (§1) Hygroscopicity of Compound 1 or the substance in the form of a salt can be evaluated by putting a sample on a glass weighing dish, storing the dish in a dark place for a given period of time in an open state at a temperature of 25 to 40° C. under a humidification condition of about 75 to 94% relative humidity, and then observing or measuring appearance, purity, water content and the like of Compound 1 or the substance in the form of a salt. Increase of water content before and after storage especially serves as an important hygroscopic index. For example, the evaluation is preferably performed after storage conditions of 25° C. and 84% RH. • High performance liquid chromatography apparatus: LC-10A Series (Shimadzu) or Agilent 1100 series (Agilent Technologies) • Solution concentration: 500 μg/ml • Injection: 10 μl • Detector: Ultraviolet absorptiometer (measurement wavelength: 245 nm) • Column: XBridge Shield RP18 5 μm, internal diameter: 4.6 mm, length: 15 cm (Waters) • Column temperature: Constant temperature around 40° C. • Mobile phase A: 20 mmol/l Sodium phosphate buffer (pH 7.0) • Mobile phase B: Acetonitrile • Liquid feeding program: A concentration gradient was formed by changing the mixing ratio of the mobile phase A and the mobile phase B as shown in Table 1. • Flow rate: 1.0 ml/minute • Water content measurement apparatus: AQ-7 (Hiranuma Sangyo) • Sample amount: 5 mg • Anolyte: Aqualyte RS (Sigma-Aldrich) • Catholyte: Aqualyte CN (Sigma-Aldrich) Compound 1 obtained by a method similar to the method described in Example 1 (two kinds of lots), the monohydrochloride obtained by the method described in Example 3, the dihydrochloride, and mixtures of the monohydrochloride and the dihydrochloride at ratios of 9:1, 8:2, 6:4, 4:6 and 2:8 were weighed on a glass weighing dish in an amount of each 40 mg, and each sample was stored in a dark place at 25° C. and 84% RH for 2 to 4 weeks. After the storage, appearance was evaluated by visual inspection. Further, purity was measured under the conditions of Test Example 7, and water content was measured under the conditions of Test Example 8.

[3] = Thermal stability test (sealed glass vial, dark place, 60° C.); conditions: for Appearance / Water content / Purity: 60° C., dark, sealed vial; for Purity: HPLC
Description: Thermal stability of Compound 1 or the substance in the form of a salt can be evaluated by, for example, sealing a sample in a glass vial or the like, storing the vial under a severe temperature condition such as 40 to 80° C. in a dark place for a given period of time, and then observing or measuring appearance, purity, water content and the like of Compound 1 or the substance in the form of a salt. Change of purity before and after storage especially serves as an important index of thermal stability. For example, the evaluation is preferably performed under a storage condition of 60° C. • High performance liquid chromatography apparatus: LC-10A Series (Shimadzu) or Agilent 1100 series (Agilent Technologies) • Solution concentration: 500 μg/ml • Injection: 10 μl • Detector: Ultraviolet absorptiometer (measurement wavelength: 245 nm) • Column: XBridge Shield RP18 5 μm, internal diameter: 4.6 mm, length: 15 cm (Waters) • Column temperature: Constant temperature around 40° C. • Mobile phase A: 20 mmol/l Sodium phosphate buffer (pH 7.0) • Mobile phase B: Acetonitrile • Liquid feeding program: A concentration gradient was formed by changing the mixing ratio of the mobile phase A and the mobile phase B as shown in Table 1. • Flow rate: 1.0 ml/minute • Water content measurement apparatus: AQ-7 (Hiranuma Sangyo) • Sample amount: 5 mg • Anolyte: Aqualyte RS (Sigma-Aldrich) • Catholyte: Aqualyte CN (Sigma-Aldrich) The monohydrochloride obtained by the method described in Example 3, the monohydrobromide obtained by the method described in Example 4, and the dihydrochloride as a control were weighed in a glass vial in an amount of 40 mg each, and the glass vial was sealed. Each sample was stored in a dark place at 60° C. for 2 to 4 weeks, and after the storage, appearance was evaluated by visual inspection. Further, purity was measured under the conditions of Test Example 7, and water content was measured under the conditions of Test Example 8.

[4] = Hygroscopicity Test 1 (open glass weighing dish, dark place, 25° C. and 84% RH); conditions: for Appearance / Water content / Purity: 25° C. and 84% RH, dark, open; for Purity: HPLC
Description: as §1, with “(Sigma-Aldrich) The” for “(Sigma-Aldrich) Compound 1 obtained by a method similar to the method described in Example 1 (two kinds of lots), the”, “the monohydrobromide obtained by” for “the dihydrochloride, and mixtures of”, “the method described in Example 4,” for “the monohydrochloride”, “dihydrochloride as a control” for “dihydrochloride at ratios of 9:1, 8:2, 6:4, 4:6 and 2:8”, “of” for “of each”, “40 mg each,” for “40 mg,”

[5] = after storage at 60° C. for 4 weeks
[6] = after storage at 25° C. and 84% RH for 4 weeks

CN[C@H]1CCN(S(=O)(=O)c2cccc3cncc(Cl)c23)C1.Cl [Monohydrochloride, (S)-1-(4-chloro-5-isoquinolinesulfonyl)-3-(methylamino)pyrrolidine monohydrochloride]
Water content [1]: 0.20% | Appearance ([2]; after 2 weeks): White | Water content ([2]; after 2 weeks): 0.1% | Appearance ([2]; before storage): White | Water content ([2]; before storage): 0.0% | Purity ([2]; after 2 weeks): 100.0% | Purity ([2]; before storage): 100.0% | Hygroscopicity compared with Compound 1 (free base) and mixtures ([2]; Test Example 11, 25° C. and 84% RH): hygroscopicity lower than any of Compound 1 (free base) and mixtures of the monohydrochloride and the dihydrochloride | Appearance ([3]; after 2 weeks): White | Water content ([3]; after 2 weeks): 0.06% | Appearance ([3]; after 4 weeks): White | Water content ([3]; after 4 weeks): 0.08% | Appearance ([3]; before storage): White | Water content ([3]; before storage): 0.20% | Purity ([3]; after 2 weeks): 99.9% | Purity ([3]; after 4 weeks): 99.7% | Purity ([3]; before storage): 99.4% | Thermal stability compared with the dihydrochloride ([3]; Test Example 9, 60° C.): more satisfactory thermal stability | Change of appearance [3, 5]: no change of appearance | Degradation of purity [3, 5]: no degradation of purity | Appearance ([4]; after 2 weeks): White | Water content ([4]; after 2 weeks): 0.23% | Appearance ([4]; after 4 weeks): White | Water content ([4]; after 4 weeks): 0.26% | Appearance ([4]; before storage): White | Water content ([4]; before storage): 0.20% | Purity ([4]; after 2 weeks): 99.8% | Purity ([4]; after 4 weeks): 99.6% | Purity ([4]; before storage): 99.4% | Hygroscopicity compared with the dihydrochloride ([4]; Test Example 10, 25° C. and 84% RH): remarkably lower hygroscopicity | Change of appearance [4, 6]: no change of appearance | Degradation of purity [4, 6]: no degradation of purity | Increase of water content [4, 6]: no substantial increase of water content

Reference: US8664243B2, “Sulfonamide compound and crystal thereof” (Asahi Kasei Pharma Corporation, priority 2007, dated 2014)
